Assay results published in patent US20170003277A1 (priority 2015, published 2017).
Values joined by “and” are separate entries in the source; they are usually repeats but may differ in a detail not shown here. Equal entries are not always repeated. Where two headings read alike, the source gives them in different places.

What was measured:
[1] = system: THP-1 human monocyte cell line; format: cell-based; details: for Number of genes significantly modulated by Copaxone relative to mannitol: FDR-adjusted p<0.05
Procedure: Prior to treatment cells were passed and plated in a 6-well plate at a concentration of 1.0×10^6 cells/mL. Cells were allowed to recover for four hours after passage (prior to treatment). […] Each sample was analyzed in six replicates. Cells were treated for 6, 12, and 24 hours. Following treatment time cells were lysed using a Qiagen® based lysis kit. Prior to RNA isolation samples were randomized in order to avoid batch effect. Total RNA was isolated using Qiagen® RNeasy kit. RNA quality was assessed by determining the absorbance ratio 260/280 nm as well as electrophoresis bioanalyzer with 260/280 ratio of 1.9-2.1 and RIN of above 9 were deemed acceptable. Gene expression was measured using Affymetrix® U133 plus 2.0 format. Sample processing was executed according to established manufacturer protocols. The scheme in (FIG. 2) illustrates the general experimental outline.
RNA from THP-1 cells was extracted and expression profiled across the entire genome using the Affymetrix Human Genome U133 Plus 2.0 chip, interrogating a total of over 47,000 transcripts. Four batches of Copaxone® and one batch of Probioglat were comparatively tested in six biological replicates each. Key identified genes were independently evaluated for level of gene expression by quantitative Real-Time PCR of samples collected in the same experiments.
mRNA expression levels were compared between GA and control (mannitol) tested with 6 sample replicates for each of 4 batches of GA and for mannitol, using LIMMA (Sim et al., Nat. Biotechnol. 2011) (Methods). […] We chose 6h for initial downstream analysis since this timepoint reflects the greatest impact of treatment. […] Rather, this decrease in number of genes affected from early to later timepoints represents an attribute of the response of the cells to the drug.
To identify differences between branded GA and differently manufactured glatiramoids, differential gene expression analysis was performed to compare directly between profiles induced by branded GA and by the purported generic glatiramoid, Probioglat. The standard R LIMMA bioconductor package was utilized to measure differentially expressed probesets across the entire microarray. To compare GA and Probioglat, comparisons were corrected to compare each treatment relative to mannitol control (i.e., [GA vs mannitol] was compared via LIMMA to [Probioglat vs mannitol]). Probesets were filtered by calls of presence on the chip for the relevant samples in the comparison (to be considered present at a given timepoint, a probeset was required to have on average a call of present or marginal across the relevant samples at that timepoint). Probesets were mapped to genes using the annotation available for the U133 Plus 2.0 chip from Affymetrix. FDR adjusted p values reported for genes represent the lowest FDR adjusted p value for present probesets for that gene.

[2] = system: THP-1 human monocyte cell line; assay: Pathway enrichment (DAVID) in THP-1 cells, Example 9; format: cell-based; details: genes upregulated vs mannitol, 6 hours
Procedure: Nucleic Acids Res. 37, 1-13 (2009)]. Pathway enrichment results were visualized using volcano plots, plotting −log p-values versus enrichment scores. For GA MOA, to obtain top-gene lists of appropriate size (tens-hundreds) for use with DAVID, an absolute-value fold-change cutoff of 1.5 and p-value cutoff of 1e-3 were utilized to obtain gene lists for pathway enrichment. […] DAVID runs were conducted on Sep. […] Please note that the GO databases are updated daily (as noted on the GO site:www.geneontology.org/GO.downloads.ontology.shtml) and therefore performing the same enrichments on the same genesets may yield slightly varying results depending on the rundate. Pathway p-values may change slightly between runs conducted at different times; the overall picture of enriched pathways, however, is expected to remain consistent.
Performing the same enrichments on the same genesets may yield slightly varying results depending on the run date (GO databases are updated daily: www.geneontology.org/GO.downloads.ontology.shtml).

[3] = cited from earlier work
[4] = system: mouse splenocytes, THP-1 human monocyte cell line, PBMCs from MS patients; details: prior study (ACTRIMS-ECTRIMS 2014, P282); cited from earlier work
[5] = 6 hr, FDR p < 1e−5, |FC| >= 1.3
[6] = 6 hr, FDR p < 1e−5, |FC| >= 1.5
[7] = 6 hr, nominal p < 0.05, vs mannitol
[8] = 12 hr, FDR p < 1e−5, |FC| >= 1.3
[9] = 12 hr, FDR p < 1e−5, |FC| >= 1.5
[10] = 24 hr, FDR p < 1e−5, |FC| >= 1.3
[11] = 24 hr, FDR p < 1e−5, |FC| >= 1.5

For glatiramer acetate [Copaxone®], the “raw.FC 202434_s_at CYP1B1” value [1] was 2.203, the “raw.FC 202435_s_at CYP1B1” value [1] was 1.96 and the “raw.FC 202436_s_at CYP1B1” value [1] was 2.027. For the same substance, the “raw.FC 202437_s_at CYP1B1” value [1] was 1.809, the “IL1RN fold change (FC), all present probesets” value ([1]; 6h, GA vs mannitol, listed as GA) was 1.43 and 1.35 and 1.26 and the “Number of genes significantly modulated by Copaxone relative to mannitol” value ([1]; 6 hour) was 6,890. The “IL10 fold change (FC)” value ([1]; 6 hour, GA vs mannitol) was 1.52, the “Number of genes Down-regulated by GA” value ([1]; 6 hr, FDR p < 0.05) was 4066 and the “Number of genes Up-regulated by GA” value ([1]; 6 hr, FDR p < 0.05) was 2824. For the same substance, the “Number of genes Down-regulated by GA” value [1, 5] was 508, the “Number of genes Up-regulated by GA” value [1, 5] was 557 and the “Number of genes Down-regulated by GA” value [1, 6] was 119. For the same substance, the “Number of genes Up-regulated by GA” value [1, 6] was 257, the “Number of genes Down-regulated by GA” value [1, 7] was 4909 and the “Number of genes Up-regulated by GA” value [1, 7] was 3511. For the same substance, the “Number of genes significantly modulated by Copaxone relative to mannitol” value ([1]; 12 hours) was 3,118, the “Number of genes Down-regulated by GA” value ([1]; 12 hr, FDR p < 0.05) was 1810 and the “Number of genes Up-regulated by GA” value ([1]; 12 hr, FDR p < 0.05) was 1308. For the same substance, the “Number of genes Down-regulated by GA” value [1, 8] was 50, the “Number of genes Up-regulated by GA” value [1, 8] was 210 and the “Number of genes Down-regulated by GA” value [1, 9] was 10. For the same substance, the “Number of genes Up-regulated by GA” value [1, 9] was 68, the “Number of genes Down-regulated by GA” value ([1]; 12 hr, nominal p < 0.05) was 3430 and the “Number of genes Up-regulated by GA” value ([1]; 12 hr, nominal p < 0.05) was 2377. For the same substance, the “Number of genes significantly modulated by Copaxone relative to mannitol” value ([1]; 24 hours) was 1,791, the “Number of genes Down-regulated by GA” value ([1]; 24 hr, FDR p < 0.05) was 1185 and the “Number of genes Up-regulated by GA” value ([1]; 24 hr, FDR p < 0.05) was 606. For the same substance, the “Number of genes Down-regulated by GA” value [1, 10] was 6, the “Number of genes Up-regulated by GA” value [1, 10] was 57 and the “Number of genes Down-regulated by GA” value [1, 11] was 0. The “Number of genes Up-regulated by GA” value [1, 11] was 15, the “Number of genes Down-regulated by GA” value ([1]; 24 hr, nominal p < 0.05) was 3724 and the “Number of genes Up-regulated by GA” value ([1]; 24 hr, nominal p < 0.05) was 1410. For the same substance, the “CCL2 expression relative to mannitol control” value ([1]; THP-1, 6 hours) was “decreased”, the “CD14 expression versus mannitol control” value ([1]; THP-1, 6 hours) was “not modulated” and the “CD14 201743_at Copaxone Expression Value Range Maximum” value ([1]; THP-1, all Copaxone samples) was 9.69. The “CD14 201743_at Copaxone Expression Value Range Minimum” value ([1]; THP-1, all Copaxone samples) was 9.32, the “CISH 223377_x_at Copaxone Expression Value Range Maximum” value ([1]; THP-1, all Copaxone samples) was 9.11 and the “CISH 223377_x_at Copaxone Expression Value Range Minimum” value ([1]; THP-1, all Copaxone samples) was 8.86. The “CISH 223961_s_at Copaxone Expression Value Range Maximum” value ([1]; THP-1, all Copaxone samples) was 7.69, the “CISH 223961_s_at Copaxone Expression Value Range Minimum” value ([1]; THP-1, all Copaxone samples) was 7.24 and the “ICAM1 202637_s_at Copaxone Expression Value Range Maximum” value ([1]; THP-1, all Copaxone samples) was 8.06. The “ICAM1 202637_s_at Copaxone Expression Value Range Minimum” value ([1]; THP-1, all Copaxone samples) was 7.44, the “ICAM1 202638_s_at Copaxone Expression Value Range Maximum” value ([1]; THP-1, all Copaxone samples) was 7.30 and the “ICAM1 202638_s_at Copaxone Expression Value Range Minimum” value ([1]; THP-1, all Copaxone samples) was 6.51. For the same substance, the “MMP9 203936_s_at Copaxone Expression Value Range Maximum” value ([1]; THP-1, all Copaxone samples) was 9.97, the “MMP9 203936_s_at Copaxone Expression Value Range Minimum” value ([1]; THP-1, all Copaxone samples) was 9.53 and the “Fold Enrichment” value ([2]; GO:0001503~ossification (GOTERM BP_ALL)) was 4.068. The “Fold Enrichment” value ([2]; GO:0007204~elevation of cytosolic calcium ion concentration (GOTERM BP_ALL)) was 4.773, the “Fold Enrichment” value ([2]; GO:0010557~positive regulation of macromolecule biosynthetic process (GOTERM BP_ALL)) was 1.871 and the “Fold Enrichment” value ([2]; GO:0010628~positive regulation of gene expression (GOTERM BP_ALL)) was 1.936. For the same substance, the “Fold Enrichment” value ([2]; GO:0051241~negative regulation of multicellular organismal process (GOTERM BP_ALL)) was 3.649, the “Adverse events leading to discontinuation” value ([3]; GATE study arm) was 5 and the “Effect on annualized relapse rate (ARR)” value ([3]; GATE study, Copaxone arm (357) vs Placebo (84)) was “no effect in reducing ARR”. The “Genes modulated by Copaxone in both mouse splenocyte and THP-1 systems” value [4] was 1,378, the “Genes modulated by Copaxone only in THP-1 cells” value [4] was 2,121 and the “Genes modulated by Copaxone only in splenocytes” value [4] was 6,691.
